Data reported in US20240366606A1, “MRGPRX2 ANTAGONISTS AND USES THEREOF” (The Regents of the University of California, priority 2021, published 2024).
One block for each compound: values may come before it.

Key:
[1] = tested on: MRGPRX2; assay: BRET2 Gq activation, MRGPRX2 pocket mutants, HEK293T cells; assay type: cell-based, human
Procedure: (§1) Bioluminescence resonance energy transfer assay 2 (BRET2). To measure the receptor mediated G protein activation, HEK293T cells were plating either in six-well dishes containing 350-400 k cells per well, or 10-cm dishes at approximately 2 million per dish 20-24 h prior to transfection. The cells were then transfected with a 1:1:1:1 ratio of the receptor:GurLuc8:Gβ:GγGFP DNA. Transit 2020 (Mirus biosciences) was used to complex the DNA at a ratio of 3 μL Transit/μg DNA, in OptiMEM (GIBCO) at a concentration of 10 ng DNA per μL OptiMEM. After 24 h, the cells were plated in poly-L-lysine coated 96-well white clear bottom cell culture plates in plating media (DMEM+1% dialyzed FBS) at a density of 40-50,000 cells in 200 μl per well and incubated overnight. The next day, the media was carefully aspirated and cells were washed once with 60 μl of drug buffer (1×HBSS, 20 mM HEPES, 0.1% (w/v) BSA, pH 7.4), then 60 μl drug buffer containing coelenterazine 400a (nanolight technology) at 5 μM final concentration was added to each well and incubate for 5 min. Cells were then treated with 30 μl of 3× designated drug for an additional 5 minutes. After drug incubation, plates were read in an LB940 Mithras plate reader (Berthold Technologies) with a 395 nm (RLuc8-coelenterazine 400a) and 510 nm (GFP2) emission filters, at 1 s integration times. Each plate was read four times, and measurements from the fourth read were used in all analyses. BRET ratio was computed as the ratio of the GFP2 emission to rLuc8 emission. Data were normalized to % WT stimulation with indicated reference agonist and analyzed using nonlinear regression “log(agonist) vs. response” in GraphPad Prism 9.0. Log(agonist) vs normalized response—variable slope was used for (R)-ZINC-3573 pocket mutations (D184 Å, E164 Å, W243 Å, F244 Å, L247 Å, and W248 Å).

[2] = target: T1, MRGPRX4 (Homo sapiens (Human), UniProt Q96LA9); assay: MRGPRX4 agonist activity (FLIPR Ca2+ assay, concentration-response); assay type: cell-based
Procedure: FLIPR Ca2+ assay. Tetracycline inducible MRGPRX2 or MRGPRX4 stable cells [Flp-In™ T-REx™-293 cell which is derived from HEK 293 cells (ATCC, CRL 1573)] were maintained in DMEM containing 10% (v/v) FBS, 100 units ml^−1 penicillin G, 100 μg ml^−1 streptomycin, 100 μg ml^−1 hygromycin B, and 15 μg ml^−1 blasticidin ^16. NK1 stably expressing cell were maintained in DMEM containing 10% (v/v) FBS, 100 units ml^−1 penicillin G and 100 μg ml^−1 streptomycin. On the day of assay, cells were plated into Poly-L-Lysine (PLL) coated 384-well black clear bottom cell culture plates with DMEM buffer, which is composed of 1% (v/v) dialyzed FBS, 100 units ml^−1 penicillin G, 100 μg ml^−1 streptomycin with 1 μg ml^−1 tetracycline at density of 20,000 cells in 40 μl per well for overnight. For NK1 stable cells, the same media used for MRGPRX2 or MRGPRX4 cells except the tetracycline were used. […] Once loaded in FLIPR (Molecular Devices), basal fluorescence was measured for 10 s, then 10 μl of test compounds were added followed by continued fluorescence measurement for an additional 120 s. […] Data were normalized to % reference compound stimulation and analyzed using nonlinear regression “log(agonist) vs. response” in GraphPad Prism 9.0.

[3] = target: MRGPRX4 (Homo sapiens, UniProt Q96LA9, L83S); assay: Mutagenesis of MRGPRX4, agonist-stimulated Gq activation; assay type: cell-based
Procedure: as §1

[4] = target: MRGPRX4 (Homo sapiens, UniProt Q96LA9, Y130A); assay: as above; assay type: cell-based
Procedure: as §1

[5] = target: Kir6.2/SUR1 potassium channel (Homo sapiens (Human), UniProt Q09428+Q14654); assay: Electrophysiology of Kir6.2/SUR1 in HEK293 cells; assay type: cell-based; conditions: compared to nateglinide
Procedure: Electrophysiology. HEK293 cells were cultured in DMEM with 4.5 g L-^1 glucose, L-glutamine, and sodium pyruvate (Mediatech) containing 10% (v/v) FBS (Axenia BioLogix) and 1% (v/v) penicillin-streptomycin, at 37° C. and with 5% CO2. Cells were lifted with trypsin-EDTA (Life Technologies) and passaged to 6-well plates (Warner Instruments) 3-4 d before recording. Transient transfection was performed with Lipofectamine 2000 (Thermo Fisher Scientific) 2 days before recording. The plasmids of human Kir6.2 and SUR1 were the gift from Dr. Show-Ling Shyng (Oregon Health and Science University), and we fused mCherry fluorescent protein to the C-terminus of Kir6.2. The vector ratio for co-transfection of Kir6.2 to SUR1 was 1:10. Before recording, cells were lifted with trypsin-EDTA, kept in modified Tyrode's saline (140 mM NaCl, 5 mM KCl, 10 mM HEPES, 2 mM CaCl2), 1 mM MgCl2, 10 mM glucose, pH 7.2 ˜ 7.3 with HCl), and were used within 8 hours. For recording, an aliquot of cells was transferred to a recording chamber on a Nikon-TE2000 Inverted Scope (Nikon Instruments), and transfection was confirmed with fluorescent microscopy. The pipette solution contained: 145 mM KCl, 1 mM MgCl2, 5 mM EGTA, 2 mM CaCl2), 20 mM HEPES, 0.3 mM K2-ATP and 0.3 mM K2-ADP. Patch borosilicate pipettes (Sutter Instrument) were pulled from a Sutter P-97 puller with resistances of 2-3 MΩ. […]

[6] = tested on: 320 GPCRs; assay: PRESTO-Tango GPCRome screening; assay type: cell-based; conditions: 3 μM
Procedure: GPCRome Screening. Screening of compounds against the PRESTO-Tango GPCRome was accomplished using previously described methods with several modifications (63). First, HTLA cells were plated in white 384-well clear bottom plates (Greiner) in DMEM (Sigma) with 1% (v/v) dialyzed FBS and 10 U per mL penicillin-streptomycin (Gibco). After 24 h, the cells were transfected using PEI (Sigma) with an in-plate adapted method (64). Briefly, 17 ng per well PRESTO-Tango GPCR DNAs were resuspended in OptiMEM (Gibco) and hybridized with PEI prior to dilution and distribution into 384-well plates and subsequent addition to cells. After overnight incubation, MS47134 at 5× final concentration (3 μM) diluted in DMEM with 1% (v/v) dialyzed FBS were added to cells without replacement of the medium for 18-20 h. On the day of assay, medium and drug solution were dumped and loaded with 20 ul per well of Bright-Glo reagent (Promega). Plates were incubated for 20 min in the dark and the luminescence was counted for cells using SpectraMax Luminescence reader. Dopamine receptor D2 serves as an assay control with 0.1 mM Quinpirole. Data were analyzed using GraphPad Prism 9.0.

[7] = target: T1, MRGPRX4; conditions: previously identified (ref. 17); cited from earlier work
[8] = target: MRGPRX2 (Homo sapiens, UniProt Q96LB1, F170A); assay: BRET2 Gq activation, MRGPRX2 pocket mutants, HEK293T cells; assay type: cell-based
Procedure: as §1

[9] = target: MRGPRX2 (Homo sapiens, UniProt Q96LB1, W243A); assay: as above; assay type: cell-based
Procedure: as §1

T1 sequence (Q96LA9 whole entry): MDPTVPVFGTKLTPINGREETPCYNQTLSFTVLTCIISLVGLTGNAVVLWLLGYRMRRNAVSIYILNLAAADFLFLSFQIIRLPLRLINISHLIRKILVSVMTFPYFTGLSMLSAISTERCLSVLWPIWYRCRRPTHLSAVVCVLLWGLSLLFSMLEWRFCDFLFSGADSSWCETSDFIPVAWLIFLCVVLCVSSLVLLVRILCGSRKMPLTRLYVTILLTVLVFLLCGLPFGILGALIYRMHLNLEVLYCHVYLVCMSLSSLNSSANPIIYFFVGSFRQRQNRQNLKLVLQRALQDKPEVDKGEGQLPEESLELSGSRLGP
Sequence of Kir6.2/SUR1 potassium channel (Q09428 whole entry, the tested form may be a part): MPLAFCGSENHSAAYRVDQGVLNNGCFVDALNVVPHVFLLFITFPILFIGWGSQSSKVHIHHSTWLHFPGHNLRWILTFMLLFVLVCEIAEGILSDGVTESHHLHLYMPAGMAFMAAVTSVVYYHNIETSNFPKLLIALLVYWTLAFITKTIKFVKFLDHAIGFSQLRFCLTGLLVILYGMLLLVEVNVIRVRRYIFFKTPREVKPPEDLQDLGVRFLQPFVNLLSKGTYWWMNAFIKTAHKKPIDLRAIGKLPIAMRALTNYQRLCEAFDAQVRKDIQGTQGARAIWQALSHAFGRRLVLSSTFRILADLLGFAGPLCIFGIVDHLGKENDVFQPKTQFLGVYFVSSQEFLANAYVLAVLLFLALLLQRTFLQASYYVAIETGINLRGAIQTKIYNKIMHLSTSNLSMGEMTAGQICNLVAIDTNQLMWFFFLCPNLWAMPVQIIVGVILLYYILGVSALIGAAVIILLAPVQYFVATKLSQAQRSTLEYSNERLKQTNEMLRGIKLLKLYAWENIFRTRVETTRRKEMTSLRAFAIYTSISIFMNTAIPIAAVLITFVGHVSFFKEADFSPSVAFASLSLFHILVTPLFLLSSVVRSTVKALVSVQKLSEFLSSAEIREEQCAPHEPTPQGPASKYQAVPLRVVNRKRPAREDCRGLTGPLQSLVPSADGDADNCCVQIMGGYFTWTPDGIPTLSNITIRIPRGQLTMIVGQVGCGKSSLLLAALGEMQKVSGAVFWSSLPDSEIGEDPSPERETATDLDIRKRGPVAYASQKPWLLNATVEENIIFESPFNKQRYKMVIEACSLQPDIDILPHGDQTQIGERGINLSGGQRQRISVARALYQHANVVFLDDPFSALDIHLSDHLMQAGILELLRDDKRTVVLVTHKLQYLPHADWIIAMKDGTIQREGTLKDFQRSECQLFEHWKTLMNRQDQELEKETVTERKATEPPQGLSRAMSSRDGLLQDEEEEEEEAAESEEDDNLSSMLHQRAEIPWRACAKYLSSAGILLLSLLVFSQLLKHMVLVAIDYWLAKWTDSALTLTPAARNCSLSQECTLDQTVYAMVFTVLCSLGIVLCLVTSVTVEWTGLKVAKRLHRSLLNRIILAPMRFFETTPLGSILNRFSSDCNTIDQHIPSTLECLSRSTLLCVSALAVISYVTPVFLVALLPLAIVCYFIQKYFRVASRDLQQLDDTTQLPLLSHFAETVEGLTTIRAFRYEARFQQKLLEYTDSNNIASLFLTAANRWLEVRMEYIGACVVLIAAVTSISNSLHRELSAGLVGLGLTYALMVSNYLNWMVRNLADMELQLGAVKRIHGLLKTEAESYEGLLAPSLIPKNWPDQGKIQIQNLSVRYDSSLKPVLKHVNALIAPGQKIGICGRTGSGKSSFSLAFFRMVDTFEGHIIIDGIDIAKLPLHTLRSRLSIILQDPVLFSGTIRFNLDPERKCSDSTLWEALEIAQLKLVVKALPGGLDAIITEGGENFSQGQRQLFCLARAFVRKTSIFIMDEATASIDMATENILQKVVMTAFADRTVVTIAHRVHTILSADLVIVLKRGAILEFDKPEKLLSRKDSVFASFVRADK
Sequence of Kir6.2/SUR1 potassium channel (Q14654 whole entry, the tested form may be a part): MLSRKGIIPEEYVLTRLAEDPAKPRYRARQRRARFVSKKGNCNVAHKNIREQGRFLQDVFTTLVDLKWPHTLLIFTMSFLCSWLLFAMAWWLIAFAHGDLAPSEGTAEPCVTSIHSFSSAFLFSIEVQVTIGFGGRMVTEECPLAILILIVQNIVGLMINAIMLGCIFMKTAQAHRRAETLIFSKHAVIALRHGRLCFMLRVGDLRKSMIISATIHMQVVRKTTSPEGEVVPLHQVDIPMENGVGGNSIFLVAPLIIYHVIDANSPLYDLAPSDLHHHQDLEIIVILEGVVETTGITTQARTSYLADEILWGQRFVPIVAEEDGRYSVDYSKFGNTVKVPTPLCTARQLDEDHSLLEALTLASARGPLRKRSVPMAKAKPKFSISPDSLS

Compound: CN(C)[C@@H]1CCN(c2cc(-c3ccccc3)nc3ccnn23)C1 [(R)-ZINC-3573]
effect of substitution of D184(5.38) and E164(4.60) on efficacy [1]: impaired the efficacy

EC50 [2]: 150 nM
improved selectivity for MRGPRX4 over the Kir6.2/SUR1 potassium channel [5]: 47 fold
Compound: C[C@]12CC3CC(C(=O)N[C@H](Cc4ccccc4)C(=O)O)(C1)C[C@@](C)(C3)C2 [MS47134]
effect of L83S mutation on potency [3]: greatly attenuated the potency
effect of Y130(ICL2)A mutation on potency of Gq activation [4]: reduced the potency
off-target profiling at 320 GPCRs [6]: activity only at MRGPRX4 and MRGPRX1

Compound: CC(C)[C@H]1CC[C@H](C(=O)N[C@H](Cc2ccccc2)C(=O)O)CC1 [nateglinide, reference compound]
agonist potency at MRGPRX4 [7]: low micromolar agonist
effect of L83S mutation on potency [3]: greatly attenuated the potency

reduction of potency by F170(ECL2)A mutation [8]: 7 fold
effect of W243(6.55)A substitution on activity [9]: completely reduced the activity
Compound: cortistatin-14
